≈ marks a conversion by molar mass, not a printed value. Read-outs that look alike come from different tables or passages of the source.
What was measured:
M. tuberculosis H37Rv = experiment: microbe, parasite or virus in culture; format: cell-based; conditions: for MIC: Mycobacterium tuberculosis
[1] = tested on: M. tuberculosis H37Rv strain; experiment: Minimal effective dosage in the murine TB model; format: in vivo, Balb/C/J female mice; design: Mice weight: unit not given here; conditions: for Mice weight / Spleen weight / Survival: No. death: Gavage; for Survival: No. death: 10 mice
Procedure: Four-week-old Balb/C/J female mice were infected intravenously with 10^6 CFU of M. tuberculosis H37Rv strain. On the day following the infection (D1), 10 mice were sacrificed to determine the exact baseline values of spleen weight and CFU counts in the lungs. The remaining mice were allocated to the following treatment groups: an untreated negative control group for survival monitoring, a positive control group treated for 1 month with isoniazid (INH) 25 mg/kg/d, […] test groups were treated with Quin18 and Quin19 at increasing dosages (25 mg/kg/d; 50 mg/kg/d; 100 mg/kg/d; 150 mg/kg/d) given by oral gavage, and two additional test groups were treated intravenously with Quin18 25 mg/kg/d and 100 mg/kg/d. All the groups contained 10 mice and were treated from D1 to D28, 5 days a week. The parameters used for assessing the severity of infection and the effectiveness of treatments were survival rate, spleen weight, gross lung lesions and CFU counts in the lungs.
The minimal effective dosage was defined as the minimal dosage able to prevent mortality of the mice, spleen enlargement and the occurrence of gross lung lesions. CFU counts were considered to be a more precise way of determining the dose-ranging efficacy of Quin18 and Quin19.
Survival rates between groups were plotted on a Kaplan-Meier curve and compared using the log-rank test.

[2] = Acute toxicity in healthy female CD-1 mice after a single oral treatment; format: in vivo
Procedure: The aim of this study was to evaluate the acute toxicity of two new compounds (Quin 18 and Quin 19) in healthy female CD-1 after a single oral treatment at D0.
Toxicity of treatment was evaluated by monitoring of animals (general signs of pharmacologic and toxicity effects, morbidity, mortality and evident signs of toxicity, as well as twice-weekly monitoring for clinical signs and body weight) until the end of the experiment (D14). At the end of the experiment, animals were sacrificed and macroscopic autopsy was performed.
Mice of each group were administered by per os (PO) injection at 10 ml/kg according to the standard operating procedure No. TEC-078. The recommended volume for per os (PO) administration in mice is 10 ml/kg.
Morbidity, mortality and evident signs of toxicity of mice were considered daily from D0 until the end of the experiment (D14 or D15).
Monitoring of mice for detailed behavioral and clinical observations was performed twice a week from D0 until the end of the experiment (D14 or D15) according to the standard operating procedures No. TEC-192.
Body weight of mice was monitored at D1, D2 and then twice a week until the end of the experiment (D14 or D15) according to the standard operating procedures No. TEC-108. Weight loss was assessed against the starting weight of each mouse at D0.
During the course of the experiment, animals were sacrificed if any of the following occurs: • Signs of suffering (cachexia, weakening, difficulty to move or to eat), • Compound toxicity (hunching, convulsions), • 25% body weight loss on any day. Sacrifice of Animals
At D14 or D15, animals were be sacrificed by CO2 inhalation and a macroscopic autopsy was performed.

[3] = format: physicochemical
Procedure: A solubility assay was performed on both Quin 18 and Quin 19 in appropriated vehicles for per os injection into mice to obtain a fine suspension at maximal concentration (MC) of each compound. The solubility of each compound in each vehicle was evaluated by observation of potential precipitate.

[4] = molecular target: M. tuberculosis DNA gyrase (Mycobacterium tuberculosis, UniProt P9WG45+P9WG47); experiment: biochemical
Sequence of M. tuberculosis DNA gyrase (P9WG47 whole entry): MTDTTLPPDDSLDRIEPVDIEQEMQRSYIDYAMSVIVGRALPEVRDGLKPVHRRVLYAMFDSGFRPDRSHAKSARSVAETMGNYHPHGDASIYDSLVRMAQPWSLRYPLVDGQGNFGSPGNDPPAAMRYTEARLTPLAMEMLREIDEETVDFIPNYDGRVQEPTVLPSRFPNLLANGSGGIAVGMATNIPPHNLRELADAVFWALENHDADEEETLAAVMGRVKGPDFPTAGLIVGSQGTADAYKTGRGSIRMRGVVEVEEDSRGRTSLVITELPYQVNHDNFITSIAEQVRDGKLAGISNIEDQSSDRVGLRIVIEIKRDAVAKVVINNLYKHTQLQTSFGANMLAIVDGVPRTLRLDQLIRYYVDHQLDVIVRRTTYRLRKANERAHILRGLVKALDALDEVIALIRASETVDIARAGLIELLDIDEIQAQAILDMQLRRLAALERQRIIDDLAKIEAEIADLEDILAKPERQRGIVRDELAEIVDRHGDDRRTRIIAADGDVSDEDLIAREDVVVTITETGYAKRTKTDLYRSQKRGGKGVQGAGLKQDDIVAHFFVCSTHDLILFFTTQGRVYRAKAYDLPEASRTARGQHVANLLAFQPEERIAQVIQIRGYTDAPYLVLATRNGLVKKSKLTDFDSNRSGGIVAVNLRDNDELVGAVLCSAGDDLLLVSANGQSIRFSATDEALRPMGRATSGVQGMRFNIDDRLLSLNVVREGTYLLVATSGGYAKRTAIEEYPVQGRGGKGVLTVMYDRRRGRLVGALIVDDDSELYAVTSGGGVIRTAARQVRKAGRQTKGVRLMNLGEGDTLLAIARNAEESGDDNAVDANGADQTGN
Sequence of M. tuberculosis DNA gyrase (P9WG45 whole entry): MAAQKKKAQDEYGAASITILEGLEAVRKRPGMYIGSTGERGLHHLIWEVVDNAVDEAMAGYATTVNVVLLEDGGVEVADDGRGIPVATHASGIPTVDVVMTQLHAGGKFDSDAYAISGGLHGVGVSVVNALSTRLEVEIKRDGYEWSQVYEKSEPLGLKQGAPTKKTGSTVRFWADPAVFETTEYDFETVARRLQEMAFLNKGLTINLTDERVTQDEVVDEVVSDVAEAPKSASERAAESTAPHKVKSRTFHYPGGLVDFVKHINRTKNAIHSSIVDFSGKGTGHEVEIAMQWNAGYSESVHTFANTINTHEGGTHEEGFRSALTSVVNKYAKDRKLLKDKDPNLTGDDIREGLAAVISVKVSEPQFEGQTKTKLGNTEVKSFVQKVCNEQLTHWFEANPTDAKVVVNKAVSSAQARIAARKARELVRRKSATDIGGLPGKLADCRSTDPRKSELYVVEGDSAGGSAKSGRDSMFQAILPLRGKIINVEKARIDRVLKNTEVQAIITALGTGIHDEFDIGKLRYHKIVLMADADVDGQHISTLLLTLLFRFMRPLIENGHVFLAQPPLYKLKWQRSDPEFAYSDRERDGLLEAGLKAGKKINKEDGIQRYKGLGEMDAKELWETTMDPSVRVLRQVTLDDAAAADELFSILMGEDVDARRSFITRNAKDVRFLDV

For CCCCCCCCCCN1CCN(c2c(F)cc3c(=O)c(C(=O)O)cn(C4CC4)c3c2OC)CC1 [Quin 19, 1-cyclopropyl-7-(4-decylpiperazin-1-yl)-6-fluoro-8-methoxy-4-oxo-1,4-dihydroquinoline-3-carboxylic acid], the “antibacterial activity against wild-type M. tuberculosis strain (in words)” value (M. tuberculosis H37Rv; H37Rv) was “high antibacterial activity”, the MIC (M. tuberculosis H37Rv; H37RV, Table 3, read-out: MIC M. tuberculosis H37Rv) was less than 0.12 µM and the MIC (M. tuberculosis H37Rv; H37Rv, Table 2, read-out: MIC (M. tuberculosis) WT) was 0.25 µM (≈ 0.125 µg/mL). For the same compound, the Mice weight ([1]; 25 mg/kg/j) was 19.3 ± 2.6, the Spleen weight ([1]; 25 mg/kg/j) was 332 ± 141.1 mg and the “Survival: No. death” value ([1]; 25 mg/kg/j, D1 to D28, 5 days a week) was 1. The Mice weight ([1]; 50 mg/kg/j) was 18 ± 3.4, the Spleen weight ([1]; 50 mg/kg/j) was 305.6 ± 181.5 mg and the “Survival: No. death” value ([1]; 50 mg/kg/j) was 2. For the same compound, the Mice weight ([1]; 100 mg/kg/j) was 20.2 ± 1.3, the Spleen weight ([1]; 100 mg/kg/j) was 253 ± 127.2 mg and the “Survival: No. death” value ([1]; 100 mg/kg/j) was 0. For the same compound, the Mice weight ([1]; 150 mg/kg/j) was 20.7 ± 0.8, the Spleen weight ([1]; 150 mg/kg/j) was 222 ± 106.2 mg and the “Survival: No. death” value ([1]; 150 mg/kg/j) was 0. For the same compound, the “Efficacy in a mouse model of tuberculosis (in words)” value ([1]; given orally) was “outstanding efficacy”, the “Survival compared with untreated group (in words)” value ([1]; whatever the dosage (25, 50, 100 and 150 mg/kg/d) and the administration route) was “statistically superior to untreated group” and the “Loss of body weight (in words)” value ([2]; Group B1: 100 mg/kg PO Q1Dx1) was “did not exhibited any loss of body weight”. The “Tolerance (in words)” value ([2]; Group B1: 100 mg/kg PO Q1Dx1, corn oil, with sonication) was “well tolerated”, the “Mean body weight (MBW)” value ([2]; Group B1: 100 mg/kg PO Q1Dx1, with sonication, D1) was 29.73 ± 0.83 g and the “Mean body weight (MBW)” value ([2]; Group B1: 100 mg/kg PO Q1Dx1, with sonication, D2) was 29.9 ± 0.2 g. For the same compound, the “Mean body weight (MBW)” value ([2]; Group B1: 100 mg/kg PO Q1Dx1, with sonication, D3) was 30.23 ± 0.4 g, the “Mean body weight (MBW)” value ([2]; Group B1: 100 mg/kg PO Q1Dx1, with sonication, D4) was 30.5 ± 0.98 g and the “Mean body weight (MBW)” value ([2]; Group B1: 100 mg/kg PO Q1Dx1, with sonication, D7) was 31.2 ± 0.1 g. For the same compound, the “Mean body weight (MBW)” value ([2]; Group B1: 100 mg/kg PO Q1Dx1, with sonication, D11) was 32.17 ± 1.36 g, the “Mean body weight (MBW)” value ([2]; Group B1: 100 mg/kg PO Q1Dx1, with sonication, D14) was 31.4 ± 0.44 g and the “Macroscopic autopsy: Observations” value ([2]; Group B1: 100 mg/kg PO Q1Dx1, *one mouse had air bubble in the caecum) was “NTR*”. The “Mean body weight (MBW)” value ([2]; Group B1: corn oil, 10 mg/ml with sonication, 100 mg/kg PO Q1Dx1, D0, 100 mg/kg) was 31.67 ± 2.25 g, the “Loss of body weight (in words)” value ([2]; Group B2: 200 mg/kg PO Q1Dx1) was “did not exhibited any loss of body weight” and the “Tolerance (in words)” value ([2]; Group B2: 200 mg/kg PO Q1Dx1, corn oil, with sonication) was “well tolerated”. The “Mean body weight (MBW)” value ([2]; Group B2: 200 mg/kg PO Q1Dx1, with sonication, D1) was 30.97 ± 0.4 g, the “Mean body weight (MBW)” value ([2]; Group B2: 200 mg/kg PO Q1Dx1, with sonication, D2) was 30.93 ± 0.25 g and the “Mean body weight (MBW)” value ([2]; Group B2: 200 mg/kg PO Q1Dx1, with sonication, D3) was 30.3 ± 0.85 g. The “Mean body weight (MBW)” value ([2]; Group B2: 200 mg/kg PO Q1Dx1, with sonication, D7) was 31.6 ± 1.97 g, the “Mean body weight (MBW)” value ([2]; Group B2: 200 mg/kg PO Q1Dx1, with sonication, D10) was 32.1 ± 3.2 g and the “Mean body weight (MBW)” value ([2]; Group B2: 200 mg/kg PO Q1Dx1, with sonication, D14) was 31.9 ± 1.15 g. The “Macroscopic autopsy: Observations” value ([2]; Group B2: 200 mg/kg PO Q1Dx1, sacrifice at end of study) was “NTR”, the “Mean body weight (MBW)” value ([2]; Group B2: corn oil, 20 mg/ml with sonication, 200 mg/kg PO Q1Dx1, D0, 200 mg/kg) was 30.67 ± 0.21 g and the “Loss of body weight (in words)” value ([2]; Group B3: 200 mg/kg PO Q1Dx1) was “did not exhibited any loss of body weight”. For the same compound, the “Tolerance (in words)” value ([2]; Group B3: 200 mg/kg PO Q1Dx1, corn oil, without sonication) was “well tolerated”, the “Mean body weight (MBW)” value ([2]; Group B3: 200 mg/kg PO Q1Dx1, without sonication, D1) was 32.73 ± 1.46 g and the “Mean body weight (MBW)” value ([2]; Group B3: 200 mg/kg PO Q1Dx1, without sonication, D2) was 32.5 ± 0.62 g. For the same compound, the “Mean body weight (MBW)” value ([2]; Group B3: 200 mg/kg PO Q1Dx1, without sonication, D4) was 31.73 ± 0.9 g, the “Mean body weight (MBW)” value ([2]; Group B3: 200 mg/kg PO Q1Dx1, without sonication, D7) was 32.2 ± 0.5 g and the “Mean body weight (MBW)” value ([2]; Group B3: 200 mg/kg PO Q1Dx1, without sonication, D11) was 34.1 ± 1.51 g. For the same compound, the “Mean body weight (MBW)” value ([2]; Group B3: 200 mg/kg PO Q1Dx1, without sonication, D15) was 35.43 ± 1.99 g, the “Macroscopic autopsy: Observations” value ([2]; Group B3: 200 mg/kg PO Q1Dx1, sacrifice at end of study) was “NTR” and the “Mean body weight (MBW)” value ([2]; Group B3: corn oil, 20 mg/ml without sonication, 200 mg/kg PO Q1Dx1, D0, 200 mg/kg) was 33.6 ± 2.11 g. For the same compound, the “Loss of body weight (in words)” value ([2]; Group B4: 400 mg/kg PO 2Q1Dx1) was “did not exhibited any loss of body weight”, the “Tolerance (in words)” value ([2]; Group B4: 400 mg/kg PO 2Q1Dx1, corn oil, without sonication) was “well tolerated” and the “Mean body weight (MBW)” value ([2]; Group B4: 400 mg/kg PO 2Q1Dx1, without sonication, D1) was 30.47 ± 2.2 g. For the same compound, the “Mean body weight (MBW)” value ([2]; Group B4: 400 mg/kg PO 2Q1Dx1, without sonication, D2) was 30.47 ± 1.3 g, the “Mean body weight (MBW)” value ([2]; Group B4: 400 mg/kg PO 2Q1Dx1, without sonication, D5) was 31.03 ± 1.55 g and the “Mean body weight (MBW)” value ([2]; Group B4: 400 mg/kg PO 2Q1Dx1, without sonication, D9) was 31.77 ± 2.32 g. For the same compound, the “Mean body weight (MBW)” value ([2]; Group B4: 400 mg/kg PO 2Q1Dx1, without sonication, D13) was 31.7 ± 1.18 g, the “Mean body weight (MBW)” value ([2]; Group B4: 400 mg/kg PO 2Q1Dx1, without sonication, D14) was 32.53 ± 1 g and the “Macroscopic autopsy: Observations” value ([2]; Group B4: 400 mg/kg PO 2Q1Dx1, sacrifice at end of study) was “NTR”. For the same compound, the “Mean body weight (MBW)” value ([2]; Group B4: corn oil, 20 mg/ml without sonication, 400 mg/kg PO 2Q1Dx1 (2 hours between the 2 injections), D0, 400 mg/kg) was 31.03 ± 1.86 g, the “Autopsy, macroscopic observations (in words)” value ([2]; all treated groups) was “No particular sign was observed” and the “Dose up to which well tolerated (maximal solubility)” value ([2]; in corn oil, PO, female mice) was “up to 400 mg/kg”. For the same compound, the “Signs of toxicity at the dose levels tested (in words)” value ([2]; mice) was “no signs of toxicity”, the “Excipient allowing the best solubilisation” value [3] was “corn oil” and the IC50 [4] was 150 µM.
